Test results as given in ChEMBL document CHEMBL5344435 (J Med Chem, 2024).

Assay: in vivo
Conditions: C57BL/6J, mouse, po, 10 mg/kg

Cmax at 24 h: 102 ng/mL
SMILES: [O-][n+]1cc(O)cc(CCCc2ccc(Cl)c(C(F)(F)F)c2)c1
